Columns and labels:
[1] = test system: APP/PS1 transgenic mice (AD mice); test: Morris water maze test; type: in vivo, mouse; settings: 10 mg/kg intragastrically daily, 90 days, vs model group
Protocol: Twenty 5-6 months aged, male APP/PS1 transgenic mice (AD mice) were selected, and were divided into a model group and a polysaccharide administration group randomly by random number table method. PL201 was intragastrically administered daily (10 mg/kg mouse body weight), meanwhile, 10 non-transgenic mice were used as a negative control group (without PL201 administration). After 90 days of consecutive administration, Morris water maze behavior test was used to detect the effects of PL201 on learning and cognitive function of APP/PS1 mice.
Classic Morris water maze test procedure was used in the test, which includes two parts: i.e., the place navigation task and the spatial probe task. The test lasted for 7 days, and the spatial probe task was added at Day 4 and Day 7.
It can be seen from the test results in FIG. 1 that the escape latency of all the three groups of animals after 3 days of training was shortened in the place navigation task, illustrating that mice in each group can successfully complete the spatial learning task of the water maze. The escape latency was used as a test indicator.

AD mice = test: Neurogenesis in vivo, BrdU/NeuN staining of hippocampus; set-up: species or system mouse; settings: 10 mg/kg intragastrically once daily, 90 days, vs control group
Protocol: The inventors conducted PL201 administration experiments on AD mice (5-6 months aged AD mice were selected). Each mouse was intragastrically administrated 100 μl PL201, and the dosage was 10 mg/kg mouse body weight. Moreover, mice in the control group were administrated 100 μl water once daily for 90 days, and from Day 60 were intraperitoneally injected with 5-bromo-2′-deoxyuridine (BrdU) of 50 mg/kg mouse body weight once daily for 7 days. After 90 days of administration, the mice were perfused with PFA after anesthesia, and the whole brain was taken for further experiments.
For the obtained whole brain, a mature neuron marker NeuN in the hippocampus of mice was detected: The brain of mouse which had been perfused with PFA was then fixed in 4% PFA for 24 hours, and then kept for 72 hours in 30% sucrose for cryoprotection. After the treatment was completed, the region of cerebellum was removed, and the olfactory bulb was placed upright on the filter paper and frozen at −80° C. for at least 24 hours. The frozen sectioning was performed vertically and longitudinally with a thickness of 30 μm. A total of 8×9×=72 slices (2.16 mm) including DG portion were cut and arranged in slicing order. One slice was taken from every 8 slices and combined into a group of brain slices for staining. […] The number of single or double positive cells was analyzed by Image Pro Plus software. […]

mouse BV-2 cell line = test: Expression of inflammatory factors in LPS-treated BV-2 cells by QPCR; type: cell-based; settings: PL201 10, 30, 100 μM, LPS 300 ng/ml, 24 hours
Protocol: Neuroinflammation in the brain of AD is one of the causes of cognitive decline. Microglial cells are the key cells that mediate neuroinflammation. In this example, the inventors have explored whether PL201 has the effect of inhibiting neuroinflammation by detecting the expressions of inflammatory factors on mouse BV-2 cell line.
BV-2 cells were cultured in DMEM, plated to 24 well plates and cultured for 24 hours, then PL201 (0, 10, 30, and 100 μM) and LPS (300 ng/ml) were added. After co-incubation for 24 hours, Trizol was used to extract RNA and the expressions of related inflammatory factors were detected by QPCR.
Mouse BV-2 cells were cultured in DMEM, plated to 24 well plates and cultured for 24 hours, then PL202 (0, 30, 100, and 300 μM) and LPS (300 ng/ml) were added. After co-incubation for 24 hours, Trizol was used to extract RNA and the expressions of related inflammatory factors were detected by QPCR.

[2] = test system: neuroblastoma cells SK-N-SH; test: Total Aβ in supernatant of SK-N-SH cells by ELISA; type: cell-based; settings: 30, 100, 300 μM, 24 hours
Protocol: Culture of neuroblastoma cells SK-N-SH and Aβ detection: SK-N-SH cells were cultured in DMEM, plated to 24 well plates and cultured for 24 hours, then PL201 (0, 30, 100, and 300 μM) was added. After co-incubation for 24 hours, the protein level of total Aβ in supernatant was detected by ELISA.
Culture of neuroblastoma cells SK-N-SH and Aβ detection: SK-N-SH cells were cultured in DMEM, plated to 24 well plates and cultured for 24 hours, then PL202 (0, 30, and 100 μM) was added. After co-incubation for 24 hours, protein level of total Aβ in supernatant was detected by ELISA.
Culture of neuroblastoma cells SK-N-SH and Aβ detection: SK-N-SH cells were cultured in DMEM, plated to 24 well plates and cultured for 24 hours, then PL171 (300 μM) was added. After co-incubation for 24 hours, protein level of total Aβ in supernatant was detected by ELISA.
Culture of neuroblastoma cells SK-N-SH and Aβ detection: SK-N-SH cells were cultured in DMEM, plated to 24 well plates and cultured for 24 hours, then PL172 (300 μM) was added. After co-incubation for 24 hours, protein level of total Aβ in supernatant was detected by ELISA.

Human neural stem cells = test: Mitochondrial membrane potential, JC-1 staining; type: cell-based; settings: Aβ-treated cells
Protocol: Mitochondrial membrane potential is the main parameter of mitochondrial function, and mitochondrial dysfunction is a prominent feature of AD brain. In this example, the inventors have explored whether PL201 has the effect of improving mitochondrial function by detecting the level of cell mitochondrial membrane potential of human neural stem cells.
Mitochondria was stained with JC-1 for 20 minutes and washed with washing buffer, then immunofluorescence analysis was performed.

## COc1cc(/C=C/C(=O)OC2OC(C)C(O)C(O)C2O)ccc1O [PL201, (α-L-rhamnopyranosyl) ferulic acid ester]
[1]
  learning and memory abilities (escape latency): significantly improved
AD mice
  BrdU/NeuN double-positive newborn neurons in hippocampus: more BrdU/NeuN double-positive newborn neurons
Mouse BV-2 cell line
  expression of inflammatory factor IL-1β: significantly inhibit
  expression of inflammatory factor TNFα: significantly inhibit
[2]
  Aβ production (total Aβ in supernatant): significantly inhibited
Human neural stem cells
  mitochondrial membrane potential: mitigated the deleterious effect of Aβ to a lesser extent

— patent US11643428B2, “Therapeutic drug for neurodegenerative disease and application thereof” (SHANGHAI PHARMACEUTICALS HOLDING CO., LTD., priority 2018, dated 2023)
